These results are taken from PubChem BioAssay (NCI).

Structures are written as SMILES. Values joined by “and” are separate entries in the source; they are usually repeats but may differ in a detail not shown here. Equal values may be shown once.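 Results reflect a 48-hour exposure of cells in 96-well plates to compound at five concentrations. The concentration for 50% growth inhibition is given as GI50. TGI denotes the concentration required for complete inhibition of growth.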

Among the test systems are 786-0 renal; A498 renal; HL-60(TB) leukemia; HOP-62 NSCLC; HT29 colon; M19-MEL melanoma; RPMI-8226 leukemia; SNB-78 CNS; MCF7 breast; DU-145 prostate; T-47D breast.
Common to all, as to experiment: growth of human tumour cells (NCI), 48 h

Consider `CCCCCCCC(=O)OCC(C[As](=O)(O)O)OC(=O)CCCCCCC` (configuration not stated), for which the TGI was 30.9 µM with 786-0 renal; 33.2 µM in the test with A498 renal; 38.9 µM with HL-60(TB) leukemia; 34.5 µM with HOP-62 NSCLC; 33.4 µM with HT29 colon; 32.4 µM in the test on M19-MEL melanoma. The TGI in the test on RPMI-8226 leukemia is over 100 µM; with SNB-78 CNS it was 44.1 µM.
In the case of `N#Cc1ccc(Nc2cnc3ccc(N)cc3n2)cc1`, the TGI in the test on 786-0 renal, in the test with HL-60(TB) leukemia, with HOP-62 NSCLC, in the test with HT29 colon, with M19-MEL melanoma and in the test with RPMI-8226 leukemia was over 100 µM each time. In the test on SNB-78 CNS, this compound gave a TGI of over 100 µM.
Take `C=C1C(=O)O[C@@H]2OC3(C)CCC4C(C)CCC1C42OO3` (some centres not stated): the GI50 is 2.57 µM in the test on A498 renal; 1.18 µM with HL-60(TB) leukemia; 3.21 µM in the test on HT29 colon; 2.44 µM with M19-MEL melanoma; 2.2 µM in the test on MCF7 breast; 0.573 µM in the test with RPMI-8226 leukemia. Also, the GI50 in the test on SNB-78 CNS was 3.66 µM. Moreover, the TGI in the test with A498 renal was 6.56 µM and 10.6 µM; in the test with HL-60(TB) leukemia, 3.55 µM and 2 µM; in the test with HOP-62 NSCLC it was 36.7 µM; in the test on HT29 colon, 11.2 µM and 6.73 µM; in the test with M19-MEL melanoma, 14.7 µM and 13.9 µM; in the test on MCF7 breast, 11.5 µM and 15 µM. Also, the TGI in the test with SNB-78 CNS was determined as 19.8 µM.
For `O=C1C2=C(CCCCC2)C2CCCCC12O` (configuration not stated), the TGI in the test with 786-0 renal, in the test on HL-60(TB) leukemia, in the test with HOP-62 NSCLC, in the test on HT29 colon, in the test on M19-MEL melanoma and with RPMI-8226 leukemia was over 100 µM throughout. Moreover, the TGI with SNB-78 CNS was over 100 µM.
Take `C/C(=N\NC(=O)c1cccnc1)c1cccc(/C(C)=N/NC(=O)c2cccnc2)n1.CC(=O)[O-].CC(=O)[O-].[Zn+2]`: the TGI in the test on 786-0 renal was over 100 µM; in the test on A498 renal, over 100 µM; with HL-60(TB) leukemia it was 2.86 µM; in the test with HOP-62 NSCLC it was 65.6 µM; in the test on HT29 colon, over 100 µM; in the test with M19-MEL melanoma it was over 100 µM. Moreover, the TGI in the test on RPMI-8226 leukemia and in the test on SNB-78 CNS was over 100 µM throughout. Further, the GI50 in the test with A498 renal is over 100 µM; in the test with HL-60(TB) leukemia it was 0.492 µM; in the test with HT29 colon, 5.64 µM; in the test on SNB-78 CNS, 32 µM.
Take `Cc1[nH]c(=O)nc2nc3ccc(Cl)cc3c(NC(C)(CO)CO)c12`: the TGI is over 100 µM with 786-0 renal; over 100 µM in the test on A498 renal; over 100 µM with DU-145 prostate; over 100 µM with HL-60(TB) leukemia; 61.3 µM in the test on HOP-62 NSCLC; over 100 µM with HT29 colon. Besides, the TGI in the test on MCF7 breast, in the test on RPMI-8226 leukemia and in the test with T-47D breast was over 100 µM each time.
As for `NC(=O)C[C@H](NC(=O)C1(NC(=O)[C@H](Cc2ccc(CP(=O)(O)O)cc2)NC(=O)C(=O)O)CCCCC1)C(=O)NCCCc1cccc2ccccc12`, the TGI in the test on 786-0 renal, in the test with A498 renal, with DU-145 prostate, in the test with HL-60(TB) leukemia, in the test on HOP-62 NSCLC and in the test with HT29 colon was over 10 µM in each case. For the same compound, the TGI in the test on MCF7 breast, in the test with RPMI-8226 leukemia and with T-47D breast was over 10 µM in each case.
Consider `Cc1nc2c(Cl)cc(Cl)cc2c(Cl)c1CCCl`, for which the TGI in the test on 786-0 renal, in the test on A498 renal, in the test with DU-145 prostate, in the test on HL-60(TB) leukemia, with HOP-62 NSCLC and in the test on HT29 colon was over 100 µM throughout. The TGI in the test on MCF7 breast was over 100 µM; in the test with RPMI-8226 leukemia, over 100 µM; in the test with T-47D breast, 89.7 µM.
In the case of `CCCCC1(N=[N+]=[N-])C(=O)C2C=CC=C3c4ccccc4N(C1=O)C32` (configuration not stated), the TGI is over 31.6 µM with 786-0 renal; over 10 µM in the test on A498 renal; over 100 µM with DU-145 prostate; over 100 µM in the test with HL-60(TB) leukemia; over 31.6 µM with HOP-62 NSCLC; 25.8 µM with HT29 colon. For the same compound, the values for the TGI in the test with MCF7 breast, with RPMI-8226 leukemia and in the test with T-47D breast were 28.1 µM, over 31.6 µM and over 31.6 µM, respectively.
For `CC1(C)O[C@H]2OC(CO)C(OS(C)(=O)=O)[C@H]2O1` (some centres not stated), the TGI in the test on 786-0 renal, with A498 renal, in the test on DU-145 prostate, in the test on HL-60(TB) leukemia, with HOP-62 NSCLC and in the test with HT29 colon was over 100 µM throughout. Also, the TGI in the test on MCF7 breast, in the test with RPMI-8226 leukemia and with T-47D breast was over 100 µM in each case.
Regarding `COc1ccc(N2C(N)=C(C#N)C(C#N)(C#N)C2c2cccc([N+](=O)[O-])c2)cc1` (configuration not stated), the TGI with 786-0 renal was 29.1 µM; in the test on A498 renal, 29.9 µM; in the test with DU-145 prostate, 31.7 µM; in the test on HL-60(TB) leukemia it was over 25.7 µM; in the test with HOP-62 NSCLC, 30.9 µM; with HT29 colon, 29.1 µM. Moreover, the values for the TGI in the test on MCF7 breast, in the test with RPMI-8226 leukemia and in the test with T-47D breast were 40.2 µM, 42.5 µM and 28 µM, respectively.
Turning to `O=[N+]([O-])c1ccc2nc(/C=C(\O)c3ccccc3)c(/C=C(\O)c3ccccc3)nc2c1`, the TGI was 44.3 µM in the test with 786-0 renal; over 86.2 µM in the test with A498 renal; over 91 µM in the test on DU-145 prostate; 52.6 µM in the test with HL-60(TB) leukemia; 35.2 µM in the test with HOP-62 NSCLC; over 100 µM in the test with HT29 colon. The TGI was over 100 µM with MCF7 breast, 61.7 µM with RPMI-8226 leukemia and 37.3 µM in the test with T-47D breast. For the same compound, the GI50 with HL-60(TB) leukemia is 13.6 µM; in the test with RPMI-8226 leukemia, 5.21 µM.
Consider `CCCCCCCCCCCCCCCCCCOc1ccc(/C=C/C2=[N+](CCCl)CCO2)cc1`, for which the TGI in the test with 786-0 renal, in the test on A498 renal, with DU-145 prostate, with HL-60(TB) leukemia, in the test with HOP-62 NSCLC and in the test on HT29 colon was over 100 µM in each case. Also, the TGI with MCF7 breast, in the test on RPMI-8226 leukemia and in the test with T-47D breast was over 100 µM throughout.
